Data: US12297220B2, “Phenethylamines and cathinones precursors” (Transcend Therapeutics, Inc., priority 2022, dated 2025)

How the values were obtained:
[1] = test system: healthy volunteers; conditions: self-administration; cited from earlier work
[2] = test system: fear extinction recall; conditions: 7.5 mg/kg, 30 minutes prior to extinction training; cited from earlier work
[3] = test system: PTSD; conditions: clinical case series of 21 individuals; cited from earlier work
[4] = test system: rat forced swim test; test: Forced swim test (FST), antidepressant-like activity; type: in vivo
Experimental: The forced swim test (FST) is a classic model to assess the antidepressant-like activity of compounds that has been in use for over 40 years (Porsolt et al. (1977) Nature 266:730-732; Detke et al. (1995) Psychopharmacology 121:66-72). […] A single dose of 5 mg/kg methylone reduces immobility by approximately 50% compared to vehicle-treated controls, whereas a 15 mg/kg dose reduces immobility by nearly 100%. Accompanying changes in climbing and/or swimming behavior reflect noradrenergic and serotonergic activities of methylone, respectively.
All FST studies are performed and scored by an experimenter blind to treatment group and according to standard protocols. Briefly, rats are placed in a circular plexiglass container filled with water. Water temperature is maintained at 22-25° C. and changed for every animal. Day 1 (Training) consists of a 15 min acclimation trial, and Day 2 (Testing, 24 h later) consists of the 5 min test. A time sampling procedure is employed where animals are observed every 5 seconds for the duration of the test session (60 counts or 5 minutes) and scored for immobility (defined as the failure to struggle), swimming (defined as a circular movement around the tank), or climbing (defined as an upwards escape behavior). Data are expressed as the percent of the testing session (e.g., the number of immobility counts divided by 60). […]

[5] = test system: open field test; conditions: cited from earlier work
[6] = test system: mouse model of PTSD; test: Fear extinction recall in a mouse model of PTSD; type: in vivo; conditions: 30 mg/kg, IP
Experimental: FIGS. 1A-1D: Methylone improves fear extinction recall in a mouse model of PTSD. (FIG. 1A) Schematic of experimental design. A single CS—US (tone-shock) pairing on day 1 was followed by 6 CS presentations in a novel context (context B). Methylone or saline vehicle was injected 30 min prior to extinction training on day 2. On day 3, the time spent freezing to the CS was quantified. […] (FIG. 1C) The time freezing before vs. during each of 6 cues on day 3 (to control for locomotor effects) are shown. There was a significant cue×drug interaction (F(5, 130)=2.409, p<0.05). […] N=12 for methylone group (30 mg/kg, IP, orange diamonds) and N=16 for saline control group (black squares). *p<0.05
Effective PTSD treatments facilitate the disassociation between a traumatic memory and the patient's fear response, making cues for the traumatic memory evoke less of a fear response. This is modeled in the mouse fear extinction paradigm which takes place over 3 days. On day 1 (fear conditioning), mice are trained to acquire a “traumatic memory,” namely associating the conditioned stimulus (CS, tone) to the unconditioned stimulus (US, foot shock). On day 2 (extinction training), they are trained to forget the traumatic memory association by presenting the CS 6 times (with no US) in a novel environment. On day 3 (extinction recall), the mice are “asked” if that tone (CS) still elicits a fearful response, as measured by the time spent freezing when the tone is presented. Less time freezing means better extinction recall. Drugs that improve extinction recall reduce freezing time on day 3, and, therefore, show potential as a PTSD treatment.
Using these methods, prodrugs are administered to mice and tested for efficacy in the fear extinction model to evaluate their efficacy to treat PTSD and other memory disorders.

[7] = Chemical stability in phosphate buffer without hepatocytes (negative control); type: physicochemical; conditions: phosphate buffer pH 6.8 at 37° C., up to 2 hours
Experimental: (§1) Bioactivation Potential of Prodrug Candidates: After a prodrug is synthesized, its bioactivation potential to release methylone is assessed under in vitro conditions. As the prodrugs are designed to be enzymatically activated by esterases and amidases/peptidases found in the blood and/or the liver, each prodrug is incubated in human and rat whole blood as well as liver hepatocytes. In these assays, the percentage of released parent methylone and of remaining prodrug is measured at different timepoints for a period of 2 hours. A chemical stability assessment of each prodrug is also performed under various pH conditions to ensure that the methylone released is a result of enzymatic hydrolysis. Prodrugs that show in vitro bioactivation are then administered (IV/PO) to rats, and blood samples are collected to assess the pharmacokinetic profile of each prodrug.
When compound 50 was incubated with human hepatocytes under the conditions described above, at t=60 minutes, approximately 100% of the prodrug had been converted to methylone with a total recovery of approximately 100%.

[8] = test system: human hepatocytes; test: Prodrug bioactivation / metabolic stability in hepatocytes; type: in vitro ADME; conditions: t=60 minutes
Experimental: as §1
For example, the metabolic stability of prodrug candidates to release methylone could be assessed in vitro according to the following protocol: cryopreserved human and rat hepatocytes are thawed in recovery media and diluted in plating media to a viable cell density of 1×10^6 cells/mL. Viability is determined by trypan blue exclusion. […] All samples, including analytical standards, are analyzed by LC-MS/MS to measure the concentration of methylone released and the concentration of the corresponding prodrug remaining. […]

| Structure (SMILES) | systolic and diastolic blood pressure [1] | reduced freezing compared to saline injected controls (extinction recall) [2] | patients with improved symptoms of PTSD [3] | antidepressant-like effect in the rat forced swim test [4] | thigmotaxis (time spent hugging the perimeter of the open field) ([5]; 5, 10, 20 mg/kg, SC, rats) | locomotor activity in the OFT ([5]; rat, in vivo) | time spent in the center vs the periphery in the OFT ([5]; rat, in vivo) | heart rate [1] | fear extinction recall [6] | Freezing time during the first cue on day 3 (extinction recall) compared to saline ([6]; 30 min prior to extinction training, p<0.05) | locomotor changes on day 3 ([6]; p>0.05) | release of parent methylone in absence of hepatocytes [7] | prodrug converted to methylone [8] |
| --- | --- | --- | --- | --- | --- | --- | --- | --- | --- | --- | --- | --- | --- |
| CNC(C)Cc1ccc2c(c1)OCO2 (centres unmarked) [MDMA] | significant increase | 35% |  |  |  |  |  |  |  |  |  |  |  |
| CNC(C)C(=O)c1ccc2c(c1)OCO2 (centres unmarked) [Methylone, methylone] | significant increase |  | 81% | robust, dose-dependent antidepressant-like effect | reduce thigmotaxis | increases locomotor activity | reduces time spent in the center vs the periphery | increase in heart rate | significantly improves fear extinction recall | significantly reduced | No locomotor changes were observed |  |  |
| CC(OC(=O)C(C)C)OC(=O)N(C)C(C)C(=O)c1ccc2c(c1)OCO2 (centres unmarked) [compound 50, 1-(((1-(benzo[d][1,3]dioxol-5-yl)-1-oxopropan-2-yl)(methyl)carbamoyl)oxy)ethyl isobutyrate] |  |  |  |  |  |  |  |  |  |  |  | no parent methylone was released | approximately 100% |
